Data taken from patent US10357577B2, “Bacterial nitroreductase enzymes and methods relating thereto” (AUCKLAND UNISERVICES LIMITED, priority 2010, dated 2019).
“Also recorded” adds a separate entry of the source.

Legend:
[1] = test system: HCT116 cells expressing E. coli NfsB; assay: Monolayer antiproliferative (IC50) assay, NTR-expressing HCT116; type: cell-based, human; details: 18 hrs exposure, 5 days regrowth
Procedure: (§1) FIGS. 10 (B) and 10 (C) illustrates the results of evaluation of 2-nitroimidazole clinical imaging candidates with E. coli and non-E. coli NTRs. Stably-expressing cells were treated with varying concentration of 2-nitroimidazole prodrugs diluted in αMEM+5% FCS+P/S. Cells were exposed to prodrug for 18 hrs, washed and left to regrow for 5 days. IC50 was determined as the concentration of prodrug required to inhibit cell growth by 50% of untreated controls. IC50 values are mean for ≥2 independent experiments. WT:NTR ratio-ratio of IC50 means from WT cells versus NTR-expressing cell lines.
as §1, with “FIG. 21” for “FIGS. 10 (B) and 10 (C)”, “antiproliferative activity (IC50 value)” for “the results”, “prodrug” for “evaluation of 2-nitroimidazole clinical imaging”, “nitroreductases.” for “NTRs.”, “prodrug” for “2-nitroimidazole prodrugs”, “ratio-interexperimental ratio” for “ratio-ratio”
(§2) Isolated NTR gene sequences were subject to PCR and introduced in the bicistronic plasmid F579 via Gateway cloning (Invitrogen) as described by Prosser et al. (2010, Biochem Pharmacol, 79, 678-687). Stably transfected cell lines were created by transfection of the relevant plasmid using FuGENE 6 Transfection Reagent (Roche). Transfected cell populations were maintained by passage in puromycin
(§3) Cells were passaged in alpha-Minimal Essential Media, (αMEM; Gibco) supplemented with 5% FBS, (GIBCO NZ) without antibiotics. Cell were passaged for <3 months from frozen stocks and confirmed Mycoplasma free (PCR-ELISA; Roche Diagnostics). Cells were aliquoted into the 96-well plate (100 μL/well) and cells were left to attach (≥4 hrs). […] Plates were read on an ELx 808 Absorbance Microplate Reader (Bio-Tek Instruments). Absorbance was measured at 490 nm and 450 nm (final absorbance 490-450). […]

NfsB(Ec) = target: T1, NfsB(Ec) (Escherichia coli, UniProt P38489); assay: Growth Inhibition assay, NTR over-expressing E. coli SOS-R2; type: cell-based; details: elevated substrate concentrations (400 μM F-MISO, 600 μM HX4)
T1 construct: expressed in transfected cells; host or cells: E. coli SOS-R2 (endogenous nfsA, nfsB, nemA and azoR deleted) carrying pUCX::ntr
T1 sequence (P38489 whole entry): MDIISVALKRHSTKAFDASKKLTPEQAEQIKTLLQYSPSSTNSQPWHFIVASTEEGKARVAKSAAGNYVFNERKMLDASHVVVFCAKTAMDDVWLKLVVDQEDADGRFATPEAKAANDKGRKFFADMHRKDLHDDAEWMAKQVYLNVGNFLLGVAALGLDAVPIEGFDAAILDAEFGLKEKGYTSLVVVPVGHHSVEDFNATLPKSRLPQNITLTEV
Procedure: FIG. 34 (B) illustrates the metabolism of F-MISO by members of the 58 NTR over-expression library as measured by Growth Inhibition assay as described for FIG. 34A except that cells were challenged with 400 μM F-MISO.
FIG. 35 (B) illustrates the metabolism of HX4 by members of the 58 NTR over-expression library as measured by Growth Inhibition assay as described for FIG. 35A except that cells were challenged with 600 μM HX4.
Individual microtiter plate wells containing 200 μl LB+amp, 0.4% glucose were inoculated with SOS-R2 pUCX::ntr strains and incubated overnight at 30° C., 200 rpm. Ten μl of the overnight culture were used to inoculate 190 μl of fresh assay media (LB+amp, 0.05 mM IPTG, 0.2% glucose) and incubated at 30° C., 200 rpm for 3 h. The 200 μl culture was split into 100 μl duplicates which were supplemented with either 100 μl challenge media (assay media+250 uM EF5+2% DMSO) or 100 μl control media (assay media+2% DMSO). Initial OD600 readings were recorded and then plates incubated at 30° C., 200 rpm for 4 h after which final OD600 readings were taken and used to calculate strains respective growth inhibition in EF5 presence.

[2] = test system: HCT116 cells expressing NfsB homologue P. putida 2432; assay: Monolayer antiproliferative (IC50) assay, NTR-expressing HCT116; type: cell-based, human; details: 18 hrs exposure, 5 days regrowth
Procedure: as §1, §2
as §3, with “Diagnostics).” for “Diagnostics). Cells were aliquoted into the 96-well plate (100 μL/well) and cells were left to attach (≥4 hrs).”

[3] = test system: 25% HCT-116^nfsB/75% HCT-116^WT or 25% HCT-116^nfsA/75% HCT-116^WT tumours; assay: Tumour xenograft growth delay; type: in vivo, NIH-III nude mice; details: single dose i.p. PR-104 1000 μmol/kg
Procedure: FIG. 18 illustrates in vivo activity of PR-104 in 25% nfsB or 25% nfsA tumours. Average tumour volume and Kaplan-Meier growth plots for tumours grown subcutaneously on NIH-III mice. Tumours were composed of either 25% HCT-116^nfsB/75% HCT-116^WT or 25% HCT-116^nfsA/75% HCT-116^WT. When tumours reached 7 mm^2 mice (n=8-11 per group) were randomly assigned to a treatment group and injected with a single dose (i.p.) of PBS (control) or PR-104 (1000 μmol/kg). Tumour measurements were recorded twice weekly and mice were culled when tumours exceeded a mean diameter of […].
Specific pathogen-free female homozygous NIH-III nude mice (CrI:NIH-Lyst^bgFoxn1^nuBtk^xid; Charles River Laboratories) were housed in Techniplast microisolator cages and fed Harlan Teklad diet 2018i. […] Tumours were monitored using electronic calipers and mice were randomised into treatment groups once their tumours reached 7×7 mm in diameter. Tumour size and body weight were determined three times weekly. Tumour volume was calculated as π (I×w^2)/6, where I is the major axis and w is the perpendicular minor axis. […] The median time for tumours to increase in volume 4-fold relative to pretreatment volume (RTV-4) was determined, and the specific growth delay (SGD) was calculated as the percentage increase in RTV-4 for treated versus control groups. […]

[4] = test system: nitroreductase NfsA-expressing HCT116 'activator' cells; assay: MCL (multicellular layer) bystander experiment, NfsA-dependent activation; type: cell-based, human
Procedure: Displacement of the Target cell survival curve to the left (T to Tc) is indicative of the presence of a cytotoxic metabolite(s) able to diffusible out of the sensitive activator (A) cell population. The prodrug concentrations for 10% survival (C10) of target cells (wild-type cells) grown without activators (T), targets in co-culture (TC) and activators (nfsA-expressing cells) in co-culture (AC) were determined by interpolation. BEE-Bystander effect efficiency calculates the drugs bystander effect: ((Log C10T−Log C10TC)/(Log C10T−Log C10AC)).
The prodrug concentrations for 10% survival (C10) of target cells (wild-type cells) grown without activators (T), and targets in co-culture (TC) and activators (NTR-expressing cells) in co-culture (AC) can be determined. The bystander effect of a test prodrug is measured by the bystander effect efficiency which can be calculated using the algorithm ((Log C10T−Log C10TC)/(Log C10T−Log C10AC)).
Millicell-CM membrane inserts (Millipore) were coated in calf-skin collagen type III (Sigma-Aldrich) to facilitate cell attachment. […] After exposure, inserts were disaggregated (0.07% trypsin, 10 min, 37° C., followed by 100 μg/ml DNAase I (Sigma-Aldrich). Cells were counted, resuspended and plated in P60 dishes to determine clonogenic survival. To discriminate clonogenic activator (NTR+) from target (NTR−) colonies cells were plated in non-selective medium (total cells) and medium containing 1 μM puromycin (activator cells). Colonies were grown in a 37° C. 5% CO2 incubator for 10 days before staining with methylene blue (2 g/liter in 50% v/v aqueous ethanol). Colonies containing >50 cells were counted as clonogenic survivors. Surviving fractions for each population was calculated as the plating efficiency for drug-treated MCLs/untreated controls. The drug concentrations for 10% survival (C10) of target cells grown without activators (T), targets in co-culture (Tc) and activators in co-culture (Ac) was determined by interpolation.

[5] = test system: ONYX-411^WT infected HCT-116WT cells; assay: Cytopathic effect assay, control virus; type: cell-based, adenovirus; details: metronidazole refreshed every 2 days, read on day 9
Procedure: (§4) FIG. 31 illustrates the cytoprotective effects of NfsB dependent activation of metronidazole by conditionally replicating virus ONYX411^NfsB. HCT-116WT cells were seeded overnight and the top wells were infected with 0.125 MOI for ONYX411-nfsB and 1 MOI for ONYX411-WT with 2-fold serial dilutions. 24 hrs following infection media was replaced with fresh αMEM containing 2% FCS and varying concentrations of metronidazole, which was refreshed every 2 days. On day 9 wells were fixed with 10% TCA and stained with SRB and cell density analysed.
(§5) HCT-116WT cells were seeded overnight and the top wells were infected with 0.125 MOI of the replication competent adenovirus ONYX411-nfsB and 1 MOI for ONYX411-WT with 2-fold serial dilutions ((Singleton et al, 2007, Cancer Gene Ther 14 (12): 953-967). 24 hrs following infection media was replaced with fresh αMEM containing 2% FCS and varying concentrations of metronidazole, which was refreshed every 2 days. On day 9 wells were fixed with 10% TCA and stained with SRB and cell density analysed.

[6] = test system: ONYX-411^NfsB infected HCT-116WT cells; assay: Cytopathic effect assay, replicating adenovirus expressing E. coli NfsB; type: cell-based; details: metronidazole refreshed every 2 days, read on day 9
Procedure: as §4, §5

[7] = Human plasma concentration-time (AUC) and tolerability; type: in vivo; details: 50 μM metronidazole exposure, achievable in humans, read-out: human AUC equivalent to the protective exposure

O=[N+]([O-])c1nccn1CC(O)CF (stereo not drawn) [F-MISO, 1-fluoro-3-(2-nitro-1H-imidazol-1-yl)propan-2-ol]
sensitivity to 2-nitroimidazoles (in words) [1]: modest sensitivity | activity with 2-NI substrate (in words) (NfsB(Ec)): substantial activity | sensitivity to 2-nitroimidazoles (in words) [2]: modest sensitivity

CS(=O)(=O)OCCN(CCBr)c1c(C(=O)NCCOP(=O)(O)O)cc([N+](=O)[O-])cc1[N+](=O)[O-] [PR-104, 2-((2-bromoethyl)(2,4-dinitro-6-((2-(phosphonooxy)ethyl)carbamoyl)phenyl)amino)ethyl methanesulfonate]
PR-104 dependent growth delay, nfsB versus nfsA tumours (in words) [3]: similar, with no statistically significant difference

Cc1ncc([N+](=O)[O-])n1CCO [Metronidazole, 2-(2-methyl-5-nitro-1H-imidazol-1-yl)ethanol]
bystander property (in words) ([4]; MCL of NTR-expressing and parental HCT116 cells): lack any measurable bystander effect; also recorded: zero bystander property | estimated bystander effect efficiency (BEE) ([4]; hyperoxic (95% O2) MCLs, at concentrations achievable in α-MEM+10% FBS, activator fraction differs per experiment): 0% | effect on oncolytic activity (in words) [5]: no inhibitory effects | concentration range with reduction in oncolytic activity [6]: 50 to 500 µM | AUC [7]: 1200 µM·h
